pIC50: −log10 of the molar value.
Legend:
70S Ribosome [1] = test: Fluorescence polarization titration of probe binding affinity and kinetics; parameters: species or system E. coli; details: for binding affinity compared with Probe 203 / binding kinetics compared with Probe 203: summarized in FIG. 39
70S Ribosome [2] = test: Fluorescence polarization competition with Probe 203 bound to ribosomes; format: binding, E. coli; details: for pIC50: compound titrated 400 μM to 1.5 nM, ribosome 150-200% above Kd, read-out: IC50 for competing out Probe 203

Row | Molecule | binding affinity compared with Probe 203 (70S Ribosome [1]; fluorescence polarization) | binding kinetics compared with Probe 203 (70S Ribosome [1]; fluorescence polarization) | pIC50 (70S Ribosome [2]) | also measured
1 | 4″-Bodipy FL-aminoethylcarbamate clarithromycin [Probe 242] | greater affinity | even slower kinetics | – | –
2 | 9-(4,4-difluoro-5,7-dimethyl-4-bora-3a,4a-diaza-s-indacene-3-propionyl)-amino-erythromycin [Probe 203] | – | – | – | incubation time to reach binding equilibrium (70S Ribosome [1]; fluorescence polarization read at various time points): greater than a half hour; affinity for ribosomes compared with values reported in the literature for the parent erythromycin (70S Ribosome [1]; fluorescence polarization, ribosome titration 1650 nM to 0.4 nM, buffer with 20% glycerol): slightly reduced affinity
3 | 9-benzyloxycarbonylamino-4″-Bodipy FL aminoethylcarbamate erythromycin [Probe 238] | greater affinity | even slower kinetics | – | –
4 | O=C(N[C@H](CO)[C@H](O)c1ccc([N+](=O)[O-])cc1)C(Cl)Cl [Chloramphenicol] | – | – | 4.72 | –
5 | CC[C@H]1OC(=O)[C@H](C)[C@@H](O[C@H]2C[C@@](C)(OC)[C@@H](O)[C@H](C)O2)[C@H](C)[C@@H](O[C@@H]2O[C@H](C)C[C@H](N(C)C)[C@H]2O)[C@](C)(O)C[C@@H](C)C(=O)[C@H](C)[C@@H](O)[C@]1(C)O [Erythromycin] | – | – | 7.52 | –
6 | COc1ccc(C[C@H](N)C(=O)N[C@H]2[C@@H](O)[C@H](n3cnc4c(N(C)C)ncnc43)O[C@@H]2CO)cc1 [puromycin] | – | – | – | competition with Probe 203 (70S Ribosome [2]; antibiotic binding to more distant region of the ribosome): did not show competition

Source: patent US20050118624A1, “Fluorescent probes for ribosomes and method of use” (Cumbre Inc., priority 2003, published 2005)
